Laboratory results taken from US9394343B2, “Appetite stimulating protein” (The Regents of the University of California, priority 2011, dated 2016).
Bridge positions count the residues as written; N and C are the ends. Ends that are not written are not given here. Peptide text beside a SMILES is read from it.

How the values were obtained:
[1] = cited from earlier work; for Feeding response compared with AgRP: literature
[2] = cooperative folding, Jackson et al., 2002; cited from earlier work
[3] = target: T1, hMC3R (Homo sapiens, UniProt P41968); details: cited from earlier work
T1 construct: expressed in transfected cells; host or cells: HEK-293
T1 sequence (P41968 whole entry): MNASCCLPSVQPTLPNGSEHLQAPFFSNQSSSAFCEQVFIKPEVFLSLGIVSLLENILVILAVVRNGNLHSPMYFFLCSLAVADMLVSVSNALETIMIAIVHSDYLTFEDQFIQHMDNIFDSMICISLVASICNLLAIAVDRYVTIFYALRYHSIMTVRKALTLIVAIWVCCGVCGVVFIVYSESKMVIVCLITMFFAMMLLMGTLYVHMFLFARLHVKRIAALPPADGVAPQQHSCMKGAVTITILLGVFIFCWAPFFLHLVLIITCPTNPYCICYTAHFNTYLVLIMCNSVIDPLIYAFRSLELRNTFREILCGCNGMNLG

[4] = target: T2, hMC4R (Homo sapiens, UniProt P32245); details: cited from earlier work
T2 construct: expressed in transfected cells; host or cells: HEK-293
T2 sequence (P32245 whole entry): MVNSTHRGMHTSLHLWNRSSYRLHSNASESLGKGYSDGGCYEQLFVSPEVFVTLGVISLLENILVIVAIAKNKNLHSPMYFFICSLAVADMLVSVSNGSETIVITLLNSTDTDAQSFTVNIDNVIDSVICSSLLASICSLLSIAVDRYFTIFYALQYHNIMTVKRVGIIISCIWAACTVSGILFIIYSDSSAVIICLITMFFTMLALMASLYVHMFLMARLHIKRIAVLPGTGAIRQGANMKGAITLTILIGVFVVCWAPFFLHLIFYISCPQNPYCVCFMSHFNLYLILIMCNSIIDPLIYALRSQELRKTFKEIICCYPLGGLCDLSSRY

[5] = target: T1, hMC3R; details: cAMP, NDP-MSH stimulated; data adapted from the literature (footnote c); read-out: EC50, MC3R; cited from earlier work
[6] = system: male Long-Evans rats; experiment: Feeding and body mass after single third cerebral ventricle (ICV) injection; format: in vivo, rat; details: single 1.0 nmol ICV dose; for Initial (24 hour) feeding response, in words: first 24 hours

## neuropeptide Y [neuropeptide Y (NPY)]
[1]
  Feeding response compared with AgRP: feeding returns to baseline after 24 hours

## SHU9119
[1]
  Feeding response compared with AgRP: long-term response similar to AgRP

## CC(=O)N[C@H]1CSSC[C@@H]2NC(=O)[C@@H]3CSSC[C@@H](C(=O)N[C@@H](CCCNC(=N)N)C(N)=O)NC(=O)[C@H](Cc4ccc(O)cc4)NC(=O)[C@@H]4CSSC[C@H](NC(=O)[C@H](Cc5ccc(O)cc5)NC(=O)[C@H](CSSC[C@H](NC(=O)[C@H](CO)NC(=O)[C@H](CCC(=O)O)NC(=O)[C@H](Cc5c[nH]cn5)NC(=O)[C@H](CC(C)C)NC(=O)[C@H](CCCNC(=N)N)NC(=O)[C@H](C(C)C)NC1=O)C(=O)N[C@@H](CC(C)C)C(=O)NCC(=O)N[C@@H](CCC(N)=O)C(=O)N[C@@H](CCC(N)=O)C(=O)N[C@@H](C(C)C)C(=O)N1CCC[C@H]1C(=O)N3)NC(=O)[C@H]([C@@H](C)O)NC(=O)[C@H](C)NC(=O)[C@H](C)NC(=O)[C@@H]1CCCN1C(=O)[C@H](CC(=O)O)NC2=O)C(=O)N[C@@H](CCCNC(=N)N)C(=O)N[C@@H](Cc1ccccc1)C(=O)N[C@@H](Cc1ccccc1)C(=O)N[C@@H](CC(N)=O)C(=O)N[C@@H](C)C(=O)N[C@@H](Cc1ccccc1)C(=O)N4 [AgRP(87-120)] (Ac-CVRLHESCLGQQVPCCDPAATCYCRFFNAFCYCR-NH2; disulfide 1-16, 8-22, 15-33, 24-31 (inferred); C-terminus assumed)
[2]
  Folding stability: indistinguishable from AgRP(83-132)
[3]; previous study
  Dissociation constant at Mc3R compared with mature AgRP(83-132): equivalent to mature AgRP(83-132)
[4]; previous study
  Dissociation constant at Mc4R compared with mature AgRP(83-132): equivalent to mature AgRP(83-132)

## truncated AgRP lacking the N-terminal SSRR segment: CVRLHESCLGQQVPCCDPCATCYCRFFNAFCYC-RKLGTAMNPCSRT [AgRP(87-132)]
[5]
  EC50: 8.9 ± 0.2 nM
[3]; displacement of 125I-NDP-MSH, data adapted from the literature (footnote a), read-out: Ki, MC3R
  Ki: 5.2 ± 0.7 nM

## mature wild type human Agouti-Related Protein, SSRR-CVRLHESCLGQQVPCCDPCATCYCRFFNAFCYC-RKLGTAMNPCSRT (SSRRCVRLHESCLGQQVPCCDPCATCYCRFFNAFCYCRKLGTAMNPCSRT; not fully specified (bridges); ends and bridges not checked; listed as Homo sapiens) [AgRP(83-132)]
[6]
  Feeding increase over control at three or four days after injection: about 30%
  Initial (24 hour) feeding response, in words: the most potent
[6]; listed as AgRP
  Initial (24 hour) feeding response, in words: greatly stimulate feeding
[6]; first 24 hr
  Feeding increase over control after one day: ~80%
[4]; displacement of 125I-NDP-MSH, data adapted from the literature (footnotes a, d), read-out: Ki, MC4R
  Ki: 11 ± 0.7 nM

## MTII
[1]; injected after AgRP
  Feeding after injection following AgRP administration: transiently reduces feeding
